# Active and inactive are the calls of the source.
# Legend:
# [1] = target: T1, Oxysterols receptor LXR-beta (Homo sapiens, UniProt P55055); assay type: functional, cell-based;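 further: agonist activity at LXR measured by a cell-based luminescence readout across a dose range, run as a counterscreen for daf-12 agonists; HEK293 cells with Gal4-LXR fusion and GAL4-driven luciferase reporter; potency for activation of Gal4-LXR reporter so compounds are agonists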
# T1 sequence (P55055 whole entry): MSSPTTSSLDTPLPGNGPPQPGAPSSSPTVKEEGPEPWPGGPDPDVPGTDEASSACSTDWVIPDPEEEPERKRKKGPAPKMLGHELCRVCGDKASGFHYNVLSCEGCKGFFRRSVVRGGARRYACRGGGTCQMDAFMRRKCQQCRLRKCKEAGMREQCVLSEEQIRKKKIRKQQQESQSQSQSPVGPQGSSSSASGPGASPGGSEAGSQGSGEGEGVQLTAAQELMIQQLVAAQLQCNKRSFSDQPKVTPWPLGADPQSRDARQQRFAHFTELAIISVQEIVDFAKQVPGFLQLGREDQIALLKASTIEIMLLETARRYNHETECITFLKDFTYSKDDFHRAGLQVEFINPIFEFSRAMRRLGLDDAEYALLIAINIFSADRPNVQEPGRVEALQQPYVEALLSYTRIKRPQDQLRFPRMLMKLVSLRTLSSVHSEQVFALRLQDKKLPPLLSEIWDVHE
# SUMO-activating enzyme [2] = target: T2, SUMO-activating enzyme (Homo sapiens, UniProt Q9UBT2); assay: inhibitors of in vitro SUMOylation cascade, primary screen, biochemical, HTRF, uHTS (AID 2006); assay type: protein-complex assay
# [3] = target: Luciferin 4-monooxygenase (Photinus pyralis, UniProt P08659); assay: firefly luciferase enzyme inhibitors, dose response, biochemical, luminescence (AID 1891)
# [4] = Luminescence Cell-Based Dose Confirmation HTS to Identify Inhibitors of Platelet Dense Granule Release. [Related pubchem assays: 1663 (Primary HTS), 1678 (Summary of Project)]; assay type: functional
# SUMO-activating enzyme [5] = target: T2, SUMO-activating enzyme; assay: SUMOylation inhibitor hit validation, confirmation, SUMOylation inhibitor project, biochemical, AlphaScreen (AID 2018); assay type: functional
# [6] = target: 1-phosphatidylinositol 4,5-bisphosphate phosphodiesterase gamma-1 (Homo sapiens, UniProt P19174); assay: Counterscreen for inhibitors of phospholipase C isozymes (PLC-B3): Fluorescence-based biochemical high throughput dose response assay to identify inhibitors of phospholipase C isozymes (PLC-gamma1).
# [7] = target: 1-phosphatidylinositol 4,5-bisphosphate phosphodiesterase beta-3 (Homo sapiens, UniProt Q01970); assay: Fluorescence-based biochemical high throughput dose response assay to identify inhibitors of phospholipase C isozymes (PLC-B3).
# [8] = target: Heat shock protein HSP 90-alpha (Homo sapiens, UniProt P07900); assay type: functional, organism-based
# Streptokinase A = target: T3, Streptokinase A (Streptococcus pyogenes serotype M1, UniProt P10520); assay: S. pyogenes streptokinase expression inhibitors, potency, dose response, plasminogen activation absorbance, OD405 (AID 1914); assay type: functional, Streptococcus pyogenes M1 GAS;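 further: secreted streptokinase activity via plasminogen activation per viability signal from cell pellet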
# T3 sequence (P10520 whole entry): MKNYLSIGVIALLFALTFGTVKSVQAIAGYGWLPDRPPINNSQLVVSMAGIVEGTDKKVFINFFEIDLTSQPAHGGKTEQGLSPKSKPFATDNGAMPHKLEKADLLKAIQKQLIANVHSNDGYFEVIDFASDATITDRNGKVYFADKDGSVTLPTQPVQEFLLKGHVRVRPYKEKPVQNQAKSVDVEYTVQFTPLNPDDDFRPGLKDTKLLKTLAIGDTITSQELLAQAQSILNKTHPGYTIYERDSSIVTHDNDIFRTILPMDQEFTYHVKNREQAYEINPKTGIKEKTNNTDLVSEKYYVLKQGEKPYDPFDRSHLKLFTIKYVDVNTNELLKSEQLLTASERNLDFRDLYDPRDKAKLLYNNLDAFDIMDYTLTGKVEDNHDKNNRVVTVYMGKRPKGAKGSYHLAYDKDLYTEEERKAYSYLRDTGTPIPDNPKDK
# [9] = system: Streptococcus sp. 'group A'; assay: growth inhibition of control SK(-) GAS strain, dose response, counter-screen for streptokinase expression inhibitor project, luminescence, kanamycin, BacTiterGlo, confirmation (AID 1900); assay type: functional, organism-based
# [10] = cytotoxicity toward NIH3T3 fibroblasts, dose response, counter-screen, cell-based, ATP luminescence, mouse fibroblasts (AID 2010); assay type: functional;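 further: cells exposed to compound for about 90 hours before reading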
# [11] = inhibitors of intracellular T. cruzi replication, confirmation, NIH3T3 host cells, beta-gal luminescence (AID 2044); assay type: functional, cell-based;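 further: intracellular parasites grown in NIH/3T3 mouse fibroblasts as host cells; luminescent beta-galactosidase reporter signal from transgenic T. cruzi replicating inside host cells; inhibitors lower the luminescence signal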
# [12] = HepG2 cell cytotoxicity, dose response, cytotoxicity control, ATP luminescence, cherry-pick, activator set 2 (AID 1053143); assay type: functional, cell-based
# Streptococcus = assay: Group A Streptococcus viability loss, dose response, counter-screen for streptokinase expression inhibitor project, luminescence, BacTiterGlo (AID 1915); assay type: functional, organism-based;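 further: potency for reduction of bacterial viability or growth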
# [13] = HepG2 cell cytotoxicity, dose response, cytotoxicity control, plate reader, cherry-pick, antagonist series (AID 743416); assay type: functional, cell-based
# HEK293 = assay: inhibitors of LMP1-driven NF-kB reporter, dose response, cell-based, HEK293, luciferase, cherry-pick (AID 588343); assay type: functional; conditions: Homo sapiens
# [14] = LGR2 antagonists, dose response, cell-based, HEK293, CRE-luciferase reporter, cherry pick, set 2 (AID 743343); assay type: functional;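 further: transfected cells were stimulated with diluted bursicon conditioned medium after compound addition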
# [15] = MC4R antagonists, dose response, counter-screen for LGR2 antagonist project, cell-based, plate reader, cherry pick (AID 743444); assay type: functional;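 further: transfected HEK 293 cells stimulated with alpha-MSH peptide; potency of inhibitors of the alpha-MSH evoked signal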
# [16] = A549 cell cytotoxicity, dose response, cytotoxicity control, plate reader, cherry-pick, antagonist series (AID 743412); assay type: functional, cell-based
# [17] = HEK293 cell cytotoxicity, dose response, cytotoxicity control, plate reader, cherry-picked samples (AID 743446); assay type: functional, cell-based
# [18] = target: T4, Histone-lysine N-methyltransferase NSD2 (Homo sapiens, UniProt O96028); assay type: biochemical
# T4 sequence (O96028 whole entry): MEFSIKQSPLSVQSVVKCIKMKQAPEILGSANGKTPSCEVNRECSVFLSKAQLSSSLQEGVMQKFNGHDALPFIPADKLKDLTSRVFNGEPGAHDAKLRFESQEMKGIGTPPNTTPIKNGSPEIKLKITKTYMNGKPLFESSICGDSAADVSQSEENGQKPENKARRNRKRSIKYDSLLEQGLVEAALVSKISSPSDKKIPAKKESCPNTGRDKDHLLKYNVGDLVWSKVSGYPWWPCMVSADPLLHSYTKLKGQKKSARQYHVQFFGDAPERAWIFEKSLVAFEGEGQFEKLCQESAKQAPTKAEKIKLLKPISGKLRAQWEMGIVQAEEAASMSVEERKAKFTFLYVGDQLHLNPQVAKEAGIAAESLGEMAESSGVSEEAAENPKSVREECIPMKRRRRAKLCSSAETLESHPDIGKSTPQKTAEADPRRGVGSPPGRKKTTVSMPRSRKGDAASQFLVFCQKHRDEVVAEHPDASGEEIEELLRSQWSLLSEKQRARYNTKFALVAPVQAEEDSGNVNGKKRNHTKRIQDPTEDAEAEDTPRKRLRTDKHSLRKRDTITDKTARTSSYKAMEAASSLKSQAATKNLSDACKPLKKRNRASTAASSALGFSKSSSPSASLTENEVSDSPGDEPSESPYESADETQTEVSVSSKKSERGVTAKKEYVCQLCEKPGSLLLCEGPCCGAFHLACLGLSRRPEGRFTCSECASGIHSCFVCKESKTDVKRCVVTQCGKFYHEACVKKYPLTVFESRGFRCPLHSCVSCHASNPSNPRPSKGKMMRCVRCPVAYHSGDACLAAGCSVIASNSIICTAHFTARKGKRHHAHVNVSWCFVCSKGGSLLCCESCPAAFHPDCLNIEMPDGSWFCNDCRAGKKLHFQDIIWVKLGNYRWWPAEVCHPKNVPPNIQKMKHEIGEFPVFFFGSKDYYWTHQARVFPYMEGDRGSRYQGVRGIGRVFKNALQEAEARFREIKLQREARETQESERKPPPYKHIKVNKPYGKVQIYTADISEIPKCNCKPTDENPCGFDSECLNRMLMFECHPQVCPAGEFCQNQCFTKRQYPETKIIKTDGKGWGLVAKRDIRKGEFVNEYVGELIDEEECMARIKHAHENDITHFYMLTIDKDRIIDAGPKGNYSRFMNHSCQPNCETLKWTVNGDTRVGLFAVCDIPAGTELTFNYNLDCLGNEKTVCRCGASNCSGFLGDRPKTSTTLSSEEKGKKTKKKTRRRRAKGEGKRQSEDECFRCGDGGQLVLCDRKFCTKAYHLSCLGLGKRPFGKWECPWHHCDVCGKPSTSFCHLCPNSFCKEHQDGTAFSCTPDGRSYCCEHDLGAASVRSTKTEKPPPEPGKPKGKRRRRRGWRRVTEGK
# Caspase-7 = Caspase-7 (Homo sapiens, UniProt P55210); assay: human caspase-7 inhibitors, dose response, selectivity assay for caspase-6 inhibitor project, biochemical, DEVD-R110 fluorescence, cherry-pick (AID 743295)
# [19] = target: T5, RNA-binding protein pos-1 (Caenorhabditis elegans, UniProt G5EF15); assay: inhibitors of POS-1/mex-3 RNA binding, dose response, biochemical, fluorescence polarization (AID 1964);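 further: purified POS-1 fused to maltose binding protein made in E. coli; potency of compounds blocking POS-1 binding to fluorescent RNA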
# T5 sequence (G5EF15 whole entry): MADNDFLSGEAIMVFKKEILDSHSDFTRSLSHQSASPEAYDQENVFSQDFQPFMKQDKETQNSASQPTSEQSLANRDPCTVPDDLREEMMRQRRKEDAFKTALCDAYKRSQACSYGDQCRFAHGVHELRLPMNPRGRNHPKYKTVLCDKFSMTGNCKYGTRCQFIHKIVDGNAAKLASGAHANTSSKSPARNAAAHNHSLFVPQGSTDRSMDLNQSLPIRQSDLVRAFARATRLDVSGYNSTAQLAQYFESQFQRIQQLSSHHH
# Caspase-3 = target: T6, Caspase-3 (Homo sapiens, UniProt P42574); assay: caspase-3 enzyme inhibitors, selectivity check, dose response, selectivity assay for caspase-6 allosteric inhibitor project, biochemical, fluorescence, cherry-picked samples (AID 743291)
# T6 sequence (P42574 whole entry): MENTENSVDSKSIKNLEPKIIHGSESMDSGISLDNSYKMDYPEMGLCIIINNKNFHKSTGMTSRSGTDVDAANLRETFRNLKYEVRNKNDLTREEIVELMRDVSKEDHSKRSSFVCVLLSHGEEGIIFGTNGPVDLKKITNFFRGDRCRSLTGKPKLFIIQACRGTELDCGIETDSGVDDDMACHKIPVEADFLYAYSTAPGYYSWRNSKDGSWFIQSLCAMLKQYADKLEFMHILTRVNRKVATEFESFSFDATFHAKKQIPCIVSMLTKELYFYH
# Caspase-6 = target: T7, Caspase-6 (Homo sapiens, UniProt P55212); assay: human caspase-6 inhibitors, dose response, biochemical, VEID-R110 fluorescence, cherry-pick (AID 720632)
# T7 sequence (P55212 whole entry): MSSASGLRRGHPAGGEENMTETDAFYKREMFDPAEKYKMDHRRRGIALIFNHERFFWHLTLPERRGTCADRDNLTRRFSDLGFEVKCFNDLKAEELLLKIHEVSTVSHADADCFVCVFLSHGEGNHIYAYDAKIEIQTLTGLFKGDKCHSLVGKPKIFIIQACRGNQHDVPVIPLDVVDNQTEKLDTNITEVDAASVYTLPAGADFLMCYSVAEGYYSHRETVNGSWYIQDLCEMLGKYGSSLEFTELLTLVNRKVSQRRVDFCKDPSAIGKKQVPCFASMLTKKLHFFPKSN
# [20] = target: T8, Zinc finger protein mex-5 (Caenorhabditis elegans, UniProt Q9XUB2); assay: MEX-5/TCR-2 RNA interaction inhibitors, dose response, biochemical, C. elegans, fluorescence polarization (AID 1960)
# T8 sequence (Q9XUB2 whole entry): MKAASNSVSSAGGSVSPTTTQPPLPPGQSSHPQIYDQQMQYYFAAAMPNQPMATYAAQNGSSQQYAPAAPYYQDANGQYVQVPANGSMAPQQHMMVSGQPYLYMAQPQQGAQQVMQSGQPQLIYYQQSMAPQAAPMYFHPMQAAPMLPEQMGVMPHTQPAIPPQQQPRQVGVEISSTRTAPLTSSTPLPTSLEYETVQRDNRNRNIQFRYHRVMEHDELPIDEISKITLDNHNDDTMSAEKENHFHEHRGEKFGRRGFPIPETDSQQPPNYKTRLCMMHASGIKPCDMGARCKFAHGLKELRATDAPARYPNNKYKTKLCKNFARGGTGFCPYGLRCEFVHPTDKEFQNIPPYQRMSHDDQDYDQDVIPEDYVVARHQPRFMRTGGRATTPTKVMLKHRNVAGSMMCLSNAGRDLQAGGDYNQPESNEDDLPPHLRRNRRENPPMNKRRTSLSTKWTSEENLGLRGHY
# [21] = target: T9, Carboxy-terminal domain RNA polymerase II polypeptide A small phosphatase 1 (Homo sapiens, UniProt Q9GZU7); assay: inhibitors of CTDSP1, concentration-response testing, biochemical assay, absorbance-based, actives from ultra-high-throughput screening (AID 540297); assay type: functional
# T9 sequence (Q9GZU7 whole entry): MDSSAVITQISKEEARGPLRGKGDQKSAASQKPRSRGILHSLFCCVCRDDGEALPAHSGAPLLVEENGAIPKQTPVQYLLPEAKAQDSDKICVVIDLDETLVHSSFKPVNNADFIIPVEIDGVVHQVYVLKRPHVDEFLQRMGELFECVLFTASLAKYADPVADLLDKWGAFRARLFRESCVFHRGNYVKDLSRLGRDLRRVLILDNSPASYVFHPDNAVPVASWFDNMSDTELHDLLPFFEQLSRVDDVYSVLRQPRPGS
# T2 sequence (Q9UBE0 whole entry): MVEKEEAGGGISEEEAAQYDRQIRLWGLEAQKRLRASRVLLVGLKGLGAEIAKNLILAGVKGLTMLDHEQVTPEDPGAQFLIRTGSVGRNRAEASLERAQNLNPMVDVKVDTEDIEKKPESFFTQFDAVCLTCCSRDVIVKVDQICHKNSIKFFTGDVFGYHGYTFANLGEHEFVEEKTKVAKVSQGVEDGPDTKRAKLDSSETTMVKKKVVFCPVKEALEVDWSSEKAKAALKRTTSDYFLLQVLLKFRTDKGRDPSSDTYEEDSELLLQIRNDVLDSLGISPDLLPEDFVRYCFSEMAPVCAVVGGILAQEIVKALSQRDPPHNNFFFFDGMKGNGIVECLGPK
# T2 sequence (Q9UBT2 whole entry): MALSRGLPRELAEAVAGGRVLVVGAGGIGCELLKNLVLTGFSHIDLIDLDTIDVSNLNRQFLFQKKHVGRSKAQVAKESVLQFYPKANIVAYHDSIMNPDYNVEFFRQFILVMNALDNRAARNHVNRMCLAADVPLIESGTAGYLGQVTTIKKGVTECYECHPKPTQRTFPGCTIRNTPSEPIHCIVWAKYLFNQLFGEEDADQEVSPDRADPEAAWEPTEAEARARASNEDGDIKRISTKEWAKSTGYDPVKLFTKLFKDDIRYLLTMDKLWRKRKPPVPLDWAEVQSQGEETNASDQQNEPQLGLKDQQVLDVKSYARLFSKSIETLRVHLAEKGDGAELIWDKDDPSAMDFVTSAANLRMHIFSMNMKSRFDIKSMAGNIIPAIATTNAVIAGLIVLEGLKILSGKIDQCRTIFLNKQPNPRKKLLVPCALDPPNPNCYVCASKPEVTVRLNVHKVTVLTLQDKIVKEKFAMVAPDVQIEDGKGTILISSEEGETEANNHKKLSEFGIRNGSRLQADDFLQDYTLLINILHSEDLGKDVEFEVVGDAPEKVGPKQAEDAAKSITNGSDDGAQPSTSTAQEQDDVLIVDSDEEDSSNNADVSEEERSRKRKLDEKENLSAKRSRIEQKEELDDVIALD
# Chain of Luciferin 4-monooxygenase (P08659 whole entry): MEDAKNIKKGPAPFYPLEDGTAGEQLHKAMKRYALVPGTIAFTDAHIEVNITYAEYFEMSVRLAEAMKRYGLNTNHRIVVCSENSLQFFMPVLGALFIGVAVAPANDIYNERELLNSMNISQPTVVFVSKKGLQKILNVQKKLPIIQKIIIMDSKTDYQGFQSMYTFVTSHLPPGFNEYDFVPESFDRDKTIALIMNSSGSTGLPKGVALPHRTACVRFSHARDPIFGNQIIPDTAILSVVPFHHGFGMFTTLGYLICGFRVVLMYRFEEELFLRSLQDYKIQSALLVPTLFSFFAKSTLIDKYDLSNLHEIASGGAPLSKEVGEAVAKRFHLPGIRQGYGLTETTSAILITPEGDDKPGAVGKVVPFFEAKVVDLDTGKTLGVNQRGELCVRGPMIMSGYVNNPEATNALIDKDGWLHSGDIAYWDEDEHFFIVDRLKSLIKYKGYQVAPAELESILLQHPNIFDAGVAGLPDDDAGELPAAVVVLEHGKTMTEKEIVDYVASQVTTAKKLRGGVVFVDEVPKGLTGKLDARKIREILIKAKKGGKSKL
# Chain of Caspase-7 (P55210 24-198 limits assumed): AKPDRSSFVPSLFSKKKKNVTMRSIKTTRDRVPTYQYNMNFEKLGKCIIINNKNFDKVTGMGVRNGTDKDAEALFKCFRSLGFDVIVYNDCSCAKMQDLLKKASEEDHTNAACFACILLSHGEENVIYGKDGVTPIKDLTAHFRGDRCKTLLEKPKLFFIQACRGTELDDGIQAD
# Chain of Caspase-7 (P55210 207-303 limits assumed): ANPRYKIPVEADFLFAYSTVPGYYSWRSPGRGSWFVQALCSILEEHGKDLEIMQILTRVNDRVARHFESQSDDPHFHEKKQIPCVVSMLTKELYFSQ
# Chain of 1-phosphatidylinositol 4,5-bisphosphate phosphodiesterase beta-3 (Q01970 whole entry): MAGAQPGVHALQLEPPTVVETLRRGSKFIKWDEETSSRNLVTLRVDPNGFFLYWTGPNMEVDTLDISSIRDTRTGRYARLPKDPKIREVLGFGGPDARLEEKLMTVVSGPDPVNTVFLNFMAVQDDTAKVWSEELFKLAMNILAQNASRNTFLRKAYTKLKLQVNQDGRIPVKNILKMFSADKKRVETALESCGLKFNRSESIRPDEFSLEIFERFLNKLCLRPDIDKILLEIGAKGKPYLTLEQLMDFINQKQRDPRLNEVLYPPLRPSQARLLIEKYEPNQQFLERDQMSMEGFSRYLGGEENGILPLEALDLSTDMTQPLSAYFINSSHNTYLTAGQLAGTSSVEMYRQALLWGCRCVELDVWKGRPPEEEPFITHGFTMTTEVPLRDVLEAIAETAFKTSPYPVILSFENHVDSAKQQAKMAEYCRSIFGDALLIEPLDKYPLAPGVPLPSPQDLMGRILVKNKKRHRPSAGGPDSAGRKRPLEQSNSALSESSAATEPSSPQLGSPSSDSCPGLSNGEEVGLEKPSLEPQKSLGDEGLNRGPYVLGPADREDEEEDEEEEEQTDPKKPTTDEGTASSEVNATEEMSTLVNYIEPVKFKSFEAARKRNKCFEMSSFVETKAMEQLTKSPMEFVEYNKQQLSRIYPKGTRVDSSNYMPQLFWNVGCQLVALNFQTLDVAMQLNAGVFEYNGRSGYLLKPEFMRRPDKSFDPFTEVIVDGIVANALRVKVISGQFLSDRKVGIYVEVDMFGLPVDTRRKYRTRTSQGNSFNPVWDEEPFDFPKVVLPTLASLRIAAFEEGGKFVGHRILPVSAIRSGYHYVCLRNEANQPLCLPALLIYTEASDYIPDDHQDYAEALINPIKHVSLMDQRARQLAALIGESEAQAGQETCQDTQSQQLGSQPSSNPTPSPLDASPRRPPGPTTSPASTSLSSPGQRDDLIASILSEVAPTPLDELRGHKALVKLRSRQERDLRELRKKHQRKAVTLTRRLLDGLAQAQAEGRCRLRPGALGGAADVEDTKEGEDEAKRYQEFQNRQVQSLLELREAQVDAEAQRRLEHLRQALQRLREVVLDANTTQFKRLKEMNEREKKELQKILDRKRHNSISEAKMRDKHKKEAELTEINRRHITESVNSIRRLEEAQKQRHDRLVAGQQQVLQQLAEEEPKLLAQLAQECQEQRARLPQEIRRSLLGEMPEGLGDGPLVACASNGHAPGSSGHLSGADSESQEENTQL
# Chain of 1-phosphatidylinositol 4,5-bisphosphate phosphodiesterase gamma-1 (P19174 whole entry): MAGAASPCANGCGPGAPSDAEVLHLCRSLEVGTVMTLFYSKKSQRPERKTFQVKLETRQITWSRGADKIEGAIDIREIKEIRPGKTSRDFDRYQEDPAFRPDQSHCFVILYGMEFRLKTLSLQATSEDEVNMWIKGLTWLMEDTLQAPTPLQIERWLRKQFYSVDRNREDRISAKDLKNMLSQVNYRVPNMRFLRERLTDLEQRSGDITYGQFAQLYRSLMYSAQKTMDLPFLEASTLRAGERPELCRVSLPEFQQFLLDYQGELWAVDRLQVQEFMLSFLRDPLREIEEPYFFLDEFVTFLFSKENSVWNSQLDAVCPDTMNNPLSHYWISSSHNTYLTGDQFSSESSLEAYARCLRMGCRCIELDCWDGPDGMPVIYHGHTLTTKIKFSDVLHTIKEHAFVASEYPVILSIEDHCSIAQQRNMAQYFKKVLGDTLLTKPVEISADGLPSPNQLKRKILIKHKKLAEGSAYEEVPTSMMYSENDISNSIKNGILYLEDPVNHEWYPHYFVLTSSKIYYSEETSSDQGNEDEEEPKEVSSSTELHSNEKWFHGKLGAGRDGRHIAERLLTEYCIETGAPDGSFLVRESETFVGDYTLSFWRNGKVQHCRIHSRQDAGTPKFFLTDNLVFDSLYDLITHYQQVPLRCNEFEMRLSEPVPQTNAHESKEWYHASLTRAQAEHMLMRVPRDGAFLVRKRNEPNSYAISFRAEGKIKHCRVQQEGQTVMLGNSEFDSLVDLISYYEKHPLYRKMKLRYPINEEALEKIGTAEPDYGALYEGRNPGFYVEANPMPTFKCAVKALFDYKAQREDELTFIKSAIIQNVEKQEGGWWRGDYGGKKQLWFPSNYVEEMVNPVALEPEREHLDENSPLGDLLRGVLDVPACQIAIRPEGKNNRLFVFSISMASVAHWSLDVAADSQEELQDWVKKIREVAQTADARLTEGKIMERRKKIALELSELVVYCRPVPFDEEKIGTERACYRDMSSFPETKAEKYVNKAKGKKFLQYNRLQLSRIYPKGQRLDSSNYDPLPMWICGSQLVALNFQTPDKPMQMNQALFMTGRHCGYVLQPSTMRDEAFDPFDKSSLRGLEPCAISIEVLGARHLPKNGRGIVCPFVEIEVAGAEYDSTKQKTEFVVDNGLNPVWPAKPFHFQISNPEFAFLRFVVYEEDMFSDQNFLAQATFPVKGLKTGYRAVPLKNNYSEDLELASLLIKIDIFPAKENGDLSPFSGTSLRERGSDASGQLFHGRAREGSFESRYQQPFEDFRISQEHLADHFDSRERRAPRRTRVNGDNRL
compound,measurement,setting,value
Cc1ccc2nc(C)/c(=N\O)c(C)nc2c1,EC50,[1],> 67.6 µM (inactive)
Nc1ncnc2c1ncn2[C@@H]1O[C@H](COP(=O)(O)O)[C@@H](O)[C@@H]1O,IC50,SUMO-activating enzyme [2],16.6 µM (active)
same,EC50,[3],1.08 µM (active)
same,EC50,[4],0.946 µM (active)
same,IC50,SUMO-activating enzyme [5],7.95 µM (active)
same,IC50,[6],8.71 µM (active)
same,IC50,[7],> 122 µM (inactive)
same,AC50,[8],1.92 µM (active)
Cc1nn(-c2ccccc2)c(C)c1/C=N/Nc1nc2ccccc2[nH]1,EC50,Streptokinase A,> 150 µM (not active)
same,EC50,[9],7.89 µM (active)
same,EC50,[10],> 60 µM (not active)
same,EC50,[11],2.15 µM (active)
same,AC50,[12],26 µM (active)
same,EC50,Streptococcus,> 150 µM (not active)
O=C(Nc1ccc2c(c1)OCCO2)c1ccccn1,AC50,[13],48.5 µM (active)
same,AC50,HEK293,2.3 µM (active)
same,AC50,[14],3.29 µM (active)
same,AC50,[15],2.75 µM (active)
same,AC50,[16],19.9 µM (active)
same,AC50,[17],27.3 µM (active)
Cc1cc(C=O)c(C)n1-c1ccc(Cl)c(C(=O)O)c1,AC50,[18],10.6 µM (active)
same,AC50,Caspase-7,> 70 µM (inactive)
same,EC50,[19],> 300 µM (not active)
same,AC50,Caspase-3,43.1 µM (active)
same,AC50,Caspase-6,1.47 µM (active)
same,EC50,[20],> 300 µM (not active)
same,IC50,[21],4.61 µM (active)
